Experimental data: the supplement of paper PMC10307832

How the values were obtained:
Experiment in all cases: relative viability (nuclei count vs DMSO), 5 days (fraction); higher = more cells survive
NCI-H2347 = test system: NCI-H2347
How it was run: (§1)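 The day after seeding in 1536-well plates, lung cancer cell lines were treated by pin tool with a single drug, or with a fixed anchor-drug dose together with five library-drug doses (not always all listed) in √10 steps. After 5 days, a combined fix-and-stain solution (final 0.05% Triton X-100, 1% formaldehyde, 1 ug/ml Hoechst) was added. Nuclei counted on 4× images gave relative viability as treated counts over vehicle counts, reported as the median of duplicate plates.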

EMC-BAC-2 = test system: EMC-BAC-2
How it was run: as §1

RERF-LC-KJ = test system: RERF-LC-KJ
How it was run: as §1

LK-2 = test system: LK-2
How it was run: as §1

HCC-366 = test system: HCC-366
How it was run: as §1

PC-3 [JPC-3] = test system: PC-3 [JPC-3]
How it was run: as §1

NCI-H441 = test system: NCI-H441
How it was run: as §1

NCI-H1651 = test system: NCI-H1651
How it was run: as §1

HARA = test system: HARA
How it was run: as §1

NCI-H1650 = test system: NCI-H1650
How it was run: as §1

Structure (SMILES): Cc1cn(-c2cc(NC(=O)c3ccc(C)c(Nc4nccc(-c5cccnc5)n4)c3)cc(C(F)(F)F)c2)cn1 [Nilotinib] + Nc1ncn([C@H]2C[C@H](O)[C@@H](CO)O2)c(=O)n1 [Decitabine] (partner 2 µM)
- relative viability (NCI-H2347; first compound 0.003162 µM): 0.694
- relative viability (NCI-H2347; first compound 0.01 µM): 0.718
- relative viability (NCI-H2347; first compound 0.03162 µM): 0.626
- relative viability (NCI-H2347; first compound 0.1 µM): 0.601
- relative viability (EMC-BAC-2; first compound 0.001 µM): 0.974
- relative viability (EMC-BAC-2; first compound 0.003162 µM): 0.996
- relative viability (EMC-BAC-2; first compound 0.01 µM): 1.02
- relative viability (EMC-BAC-2; first compound 0.03162 µM): 0.94
- relative viability (EMC-BAC-2; first compound 0.1 µM): 1
- relative viability (RERF-LC-KJ; first compound 0.001 µM): 0.732
- relative viability (RERF-LC-KJ; first compound 0.003162 µM): 0.796
- relative viability (RERF-LC-KJ; first compound 0.01 µM): 0.771
- relative viability (RERF-LC-KJ; first compound 0.03162 µM): 0.653
- relative viability (RERF-LC-KJ; first compound 0.1 µM): 0.449
- relative viability (LK-2; first compound 0.001 µM): 0.327
- relative viability (LK-2; first compound 0.003162 µM): 0.338
- relative viability (LK-2; first compound 0.01 µM): 0.252
- relative viability (LK-2; first compound 0.03162 µM): 0.236
- relative viability (LK-2; first compound 0.1 µM): 0.26
- relative viability (HCC-366; first compound 0.001 µM): 0.325
- relative viability (HCC-366; first compound 0.003162 µM): 0.348
- relative viability (HCC-366; first compound 0.01 µM): 0.41
- relative viability (HCC-366; first compound 0.03162 µM): 0.445
- relative viability (HCC-366; first compound 0.1 µM): 0.37
- relative viability (PC-3 [JPC-3]; first compound 0.001 µM): 0.873
- relative viability (PC-3 [JPC-3]; first compound 0.01 µM): 1
- relative viability (PC-3 [JPC-3]; first compound 0.03162 µM): 0.897
- relative viability (PC-3 [JPC-3]; first compound 0.1 µM): 1.01
- relative viability (NCI-H441; first compound 0.001 µM): 0.295
- relative viability (NCI-H441; first compound 0.003162 µM): 0.304
- relative viability (NCI-H441; first compound 0.01 µM): 0.284
- relative viability (NCI-H441; first compound 0.03162 µM): 0.367
- relative viability (NCI-H441; first compound 0.1 µM): 0.365
- relative viability (NCI-H1651; first compound 0.001 µM): 0.572
- relative viability (NCI-H1651; first compound 0.003162 µM): 0.734
- relative viability (NCI-H1651; first compound 0.01 µM): 0.689
- relative viability (NCI-H1651; first compound 0.03162 µM): 0.535
- relative viability (NCI-H1651; first compound 0.1 µM): 0.288
- relative viability (HARA; first compound 0.001 µM): 0.383
- relative viability (HARA; first compound 0.003162 µM): 0.681
- relative viability (HARA; first compound 0.01 µM): 0.856
- relative viability (HARA; first compound 0.03162 µM): 0.47
- relative viability (HARA; first compound 0.1 µM): 0.649
- relative viability (NCI-H1650; first compound 0.001 µM): 0.462
- relative viability (NCI-H1650; first compound 0.003162 µM): 0.621
- relative viability (NCI-H1650; first compound 0.01 µM): 0.579
- relative viability (NCI-H1650; first compound 0.03162 µM): 0.588
- relative viability (NCI-H1650; first compound 0.1 µM): 0.757
